Patent US10458996B1, “Methods for determining clinical response to TNF-alpha and/or JAK inhibitors in subjects with inflammatory diseases” (Beth Israel Deaconess Medical Center, Inc., priority 2016, dated 2019)

What was measured:
[1] = tested on: intestinal mucosal explants from patients with IBD; experiment: Ex vivo infliximab treatment of intestinal mucosal explant cultures, cytokines in supernatant by multiplex ELISA; format: cell-based, human; details: for GM-CSF inhibition by ex vivo infliximab treatment, % patients / GM-CSF inhibition by ex vivo infliximab treatment, N patients / IFNγ inhibition by ex vivo infliximab treatment, % patients / IFNγ inhibition by ex vivo infliximab treatment, N patients / IL-1β inhibition by ex vivo infliximab treatment, % patients / IL-1β inhibition by ex vivo infliximab treatment, N patients / IL-2 inhibition by ex vivo infliximab treatment, % patients / IL-2 inhibition by ex vivo infliximab treatment, N patients / IL-4 inhibition by ex vivo infliximab treatment, % patients / IL-4 inhibition by ex vivo infliximab treatment, N patients / IL-5 inhibition by ex vivo infliximab treatment, N patients / IL-6 inhibition by ex vivo infliximab treatment, % patients / IL-6 inhibition by ex vivo infliximab treatment, N patients / IL-7 inhibition by ex vivo infliximab treatment, % patients / IL-7 inhibition by ex vivo infliximab treatment, N patients / IL-8 inhibition by ex vivo infliximab treatment, % patients / IL-8 inhibition by ex vivo infliximab treatment, N patients / IL-10 inhibition by ex vivo infliximab treatment, % patients / IL-10 inhibition by ex vivo infliximab treatment, N patients / IL-12p40 inhibition by ex vivo infliximab treatment, N patients / IL-12p70 inhibition by ex vivo infliximab treatment, % patients / IL-12p70 inhibition by ex vivo infliximab treatment, N patients / IL-13 inhibition by ex vivo infliximab treatment, N patients / IL-17A inhibition by ex vivo infliximab treatment, N patients / MCP-1 inhibition by ex vivo infliximab treatment, % patients / MCP-1 inhibition by ex vivo infliximab treatment, N patients / IL-5 inhibition by ex vivo infliximab treatment, % patients / IL-12p40 inhibition by ex vivo infliximab treatment, % patients / IL-13 inhibition by ex vivo infliximab treatment, % patients / IL-17A inhibition by ex vivo infliximab treatment, % patients: infliximab 0.5 mg/ml; for number of cytokines down-regulated in the ex vivo assay: mean±SEM; for ex vivo response rate / ex vivo response rate (patients): responder = down-regulation of >2 cytokines
Description: During a hospital visit for an endoscopic procedure that was part of their standard care, patients were asked by the study coordinator whether they were willing to participate in this research study and sign the informed consent approved by the Institution's Committee on Clinical Investigations. From each patient, four extra punch biopsies were taken from the macroscopically most diseased areas of the inflamed intestinal mucosa, put on ice and transferred to the lab within 30 minutes of their harvesting.
From each patient, intestinal mucosal biopsies were minced into several pieces and distributed in 8 wells of a 96-well plate in 250 μl of Dulbecco's Modified Eagle Medium (DMEM) supplemented with 10% FBS and antibiotic-antimycotic (Life Technologies, CA). Half of the cultures were treated with infliximab (REMICADE®; 0.5 mg/ml; Janssen Biotech, Inc, NJ) and the plate was incubated at 37° C. in a humidified chamber of 95% O2/5% CO2 for 18 hours. Culture supernatants were collected, filtered and stored at −80° C. […] Signal detection and analysis was performed by MAGPIX® (Luminex Corporation, TX).
Within each patient, differences in cytokine release between control and infliximab-treated cultures (n=4 per group) were assessed by the Mann-Whitney test. Cytokine changes in patients with CD (N=29) or UC (N=16) were expressed as mean±SEM and evaluated by unpaired t-test followed by Bonferroni correction for multiple comparisons. In rate or percentage comparisons a chi-square test was applied. The non-parametric Mann-Whitney test was chosen for the rest of two-group analyses. The STATView 2.0 software (SAS Institute) was used for all tests with the exception of the Receiver Operating Characteristic (ROC) analysis for which STATA13 was used.
The impact of anti-TNFα (infliximab) treatment was investigated in vitro using mucosal biopsy cultures derived from the most inflamed areas of the terminal ileum or colon of a total of 45 patients with IBD, 64% with CD and 36% with UC. At the time the biopsies were taken, 32 patients (71%) were receiving medications for their IBD and 16 of them were under an anti-TNFα regimen. The assay read-out consisted of a panel of 15 cytokines, chemokines and inflammatory mediators, and its design was based on previously reported biomarkers for CD and UC, on biomarkers that correlated with response to anti-TNFα treatment and on plausible TNF-alpha related biological mechanisms (Tracey et al., Rismo et al., Iskandar et al., Transl Res 159:313-325, 2012; Umehara et al., Hepatogastroenterology 53:879-882, 2006). For each patient and each cytokine, data were generated for the two conditions (plus/minus infliximab) using the median of 4 independent cultures.

patients with IBD = experiment: Clinical response to anti-TNFα therapy in study patients (review of hospital records); format: in vivo, human
Description: Upon study completion, a total of 28 patients ([…]) with IBD, 82% with CD, had received anti-TNFα therapy. Specifically, 18 patients were treated with infliximab, 8 patients with adalimumab, 1 patient with golimumab and 1 patient with cetrolizumab pegol. The study participants' hospital electronic records were reviewed by physicians blinded to the results of the ex vivo testing and clinical responses to treatment with anti-TNFα were assessed.
Patients belonging to cohort 1 (N=6) came into the study as anti-TFNalpha naïve and had the shorter follow-up.
(a) need for hospitalization or surgical intervention for IBD-related problems (N=4);
(b) dose or frequency escalation of anti-TNFα treatment or switching to another anti-TNFα regimen (N=4);
(c) adding corticosteroids or an immunomodulator to the therapeutic scheme (N=3);
(d) treatment with emerging IBD drugs such as vedolizumab, tofacitinib, or ustekinumab (N=6).

patients with UC = details: cited from earlier work
[2] = tested on: patients with moderate-to-severe CD; details: week 24 of intervention; cited from earlier work
[3] = cited from earlier work
[4] = Clinical Response No (n = 17), 18 hours
[5] = Clinical Response No (n = 17), some values below detection limit or missing, 18 hours
[6] = Clinical Response Yes (n = 11), 18 hours
[7] = Clinical Response Yes (n = 11), some values below detection limit or missing, 18 hours
[8] = Mann-Whitney within each patient, 0.5 mg/ml, 18 hours
[9] = cohort 1, anti-TNFα naïve IBD patients
[10] = cohort 2, anti-TNFα exposed patients

## infliximab
[1]; [4]
  GM-CSF inhibition by ex vivo infliximab treatment, % patients: 5.9%
  GM-CSF inhibition by ex vivo infliximab treatment, N patients: 1
  IFNγ inhibition by ex vivo infliximab treatment, % patients: 23.5%
  IFNγ inhibition by ex vivo infliximab treatment, N patients: 4
  IL-1β inhibition by ex vivo infliximab treatment, % patients: 11.8%
  IL-1β inhibition by ex vivo infliximab treatment, N patients: 2
  IL-2 inhibition by ex vivo infliximab treatment, % patients: 11.8%
  IL-2 inhibition by ex vivo infliximab treatment, N patients: 2
  IL-4 inhibition by ex vivo infliximab treatment, % patients: 5.9%
  IL-4 inhibition by ex vivo infliximab treatment, N patients: 1
  IL-5 inhibition by ex vivo infliximab treatment, N patients: 1
  IL-6 inhibition by ex vivo infliximab treatment, % patients: 5.9%
  IL-6 inhibition by ex vivo infliximab treatment, N patients: 1
  IL-7 inhibition by ex vivo infliximab treatment, % patients: 0.0%
  IL-7 inhibition by ex vivo infliximab treatment, N patients: 0
  IL-8 inhibition by ex vivo infliximab treatment, % patients: 5.9%
  IL-8 inhibition by ex vivo infliximab treatment, N patients: 1
  IL-10 inhibition by ex vivo infliximab treatment, % patients: 11.8%
  IL-10 inhibition by ex vivo infliximab treatment, N patients: 2
  IL-12p40 inhibition by ex vivo infliximab treatment, N patients: 3
  IL-12p70 inhibition by ex vivo infliximab treatment, % patients: 17.6%
  IL-12p70 inhibition by ex vivo infliximab treatment, N patients: 3
  IL-13 inhibition by ex vivo infliximab treatment, N patients: 0
  IL-17A inhibition by ex vivo infliximab treatment, N patients: 0
  MCP-1 inhibition by ex vivo infliximab treatment, % patients: 5.9%
  MCP-1 inhibition by ex vivo infliximab treatment, N patients: 1
[1]; [5]
  IL-5 inhibition by ex vivo infliximab treatment, % patients: 7.7%
  IL-12p40 inhibition by ex vivo infliximab treatment, % patients: 20.0^∧ %
  IL-13 inhibition by ex vivo infliximab treatment, % patients: 0.0^∧ %
  IL-17A inhibition by ex vivo infliximab treatment, % patients: 0.0^∧ %
[1]; [6]
  GM-CSF inhibition by ex vivo infliximab treatment, % patients: 9.1%
  GM-CSF inhibition by ex vivo infliximab treatment, N patients: 1
  IFNγ inhibition by ex vivo infliximab treatment, % patients: 45.5%
  IFNγ inhibition by ex vivo infliximab treatment, N patients: 5
  IL-1β inhibition by ex vivo infliximab treatment, % patients: 45.5%
  IL-1β inhibition by ex vivo infliximab treatment, N patients: 5
  IL-2 inhibition by ex vivo infliximab treatment, % patients: 45.5%
  IL-2 inhibition by ex vivo infliximab treatment, N patients: 5
  IL-4 inhibition by ex vivo infliximab treatment, % patients: 63.6%
  IL-4 inhibition by ex vivo infliximab treatment, N patients: 7
  IL-5 inhibition by ex vivo infliximab treatment, % patients: 81.8%
  IL-5 inhibition by ex vivo infliximab treatment, N patients: 9
  IL-6 inhibition by ex vivo infliximab treatment, % patients: 0.0%
  IL-6 inhibition by ex vivo infliximab treatment, N patients: 0
  IL-7 inhibition by ex vivo infliximab treatment, N patients: 8
  IL-8 inhibition by ex vivo infliximab treatment, % patients: 0.0%
  IL-8 inhibition by ex vivo infliximab treatment, N patients: 0
  IL-10 inhibition by ex vivo infliximab treatment, % patients: 18.2%
  IL-10 inhibition by ex vivo infliximab treatment, N patients: 2
  IL-12p40 inhibition by ex vivo infliximab treatment, % patients: 45.5%
  IL-12p40 inhibition by ex vivo infliximab treatment, N patients: 5
  IL-12p70 inhibition by ex vivo infliximab treatment, % patients: 27.3%
  IL-12p70 inhibition by ex vivo infliximab treatment, N patients: 3
  IL-13 inhibition by ex vivo infliximab treatment, N patients: 7
  IL-17A inhibition by ex vivo infliximab treatment, % patients: 72.7%
  IL-17A inhibition by ex vivo infliximab treatment, N patients: 8
  MCP-1 inhibition by ex vivo infliximab treatment, % patients: 9.1%
  MCP-1 inhibition by ex vivo infliximab treatment, N patients: 1
[1]; [7]
  IL-7 inhibition by ex vivo infliximab treatment, % patients: 88.8%
  IL-13 inhibition by ex vivo infliximab treatment, % patients: 70.0%
[1]; [8]
  number of cytokines per patient, besides TNFα, significantly inhibited ex vivo, maximum: 12
  number of cytokines per patient, besides TNFα, significantly inhibited ex vivo, median: 2
  number of cytokines per patient, besides TNFα, significantly inhibited ex vivo, minimum: 0
[1]; all patients tested, p<0.0001, 0.5 mg/ml, 18 hours
  Changes in TNFα levels in culture supernatant: robustly down-regulated
[1]; clinical non-responders to anti-TNFα therapy
  number of cytokines down-regulated in the ex vivo assay: 1.29±0.63
[1]; clinical responders to anti-TNFα therapy
  number of cytokines down-regulated in the ex vivo assay: 6.0±1.02
[1]; clinical responders versus non-responders to anti-TNFα therapy
  ex vivo inhibition of IL-17A, IL-7, IL-5 and IL-4/IL-13: almost exclusively observed in the clinical responders
[1]; [9]
  ex vivo response rate: 45.5%
  ex vivo response rate (patients): 10/23
[1]; [10]
  ex vivo response rate: 43.5%
  ex vivo response rate (patients): 10/22
[1]; group means, CD and UC patients, 0.5 mg/ml, 18 hours
  magnitude of infliximab-mediated inhibition of the rest of cytokines (other than TNFα): < 30%
[1]; patients with CD (N=29), 0.5 mg/ml, 18 hours
  cytokines whose inhibition reached statistical significance: IL-2 (p<0.001), IL-12p40 (p<0.05) and IL-5 (p<0.05)
[1]; patients with UC (N=16), 0.5 mg/ml, 18 hours
  cytokines whose inhibition reached statistical significance: IL-1β (p<0.05) and IL-7 (p<0.05)
Patients with IBD; patients positive in the ex vivo treatment (ex vivo responders, 10/12)
  clinical response rate: 83%
Patients with IBD; patients with negative ex vivo results (ex vivo non-responders, 1/16)
  clinical response rate: 6%
Patients with UC; 10 mg/kg, week 8
  clinical response rates during induction: 61.5%
Patients with UC; week 53
  clinical response rates, maintenance therapy: 19.8%
[2]
  Mucosal healing rates: 30.1%
[3]; 483 patients with CD during maintenance therapy
  patients with undetectable infliximab serum levels: 23%
[3]; metanalysis, 95% CI:2-4.9
  risk to loose response in the presence of ADA: 3.2 fold
[3]; of the CD patients with undetectable infliximab serum levels
  patients positive for anti-drug antibodies (ADA): 72%
[3]; secondary loss of response
  patients developing anti-drug antibodies (ADA): 10%
